The CombiSolv-Exp solvation set (Vermeire and Green 2021)

Assay: solvent given as SMILES

CCCCCCc1cccc2ccccc12
Conditions | solvation free energy, 298 K [kcal/mol]
in OCCOCCO | -8.95

CCCCS
Conditions | solvation free energy, 298 K [kcal/mol]
in O | -0.88

CCCCCCCCCCCCCCC
Conditions | solvation free energy, 298 K [kcal/mol]
in O | 4.29

OCCCO
Conditions | solvation free energy, 298 K [kcal/mol]
in O | -9.96

FC(F)=CCl
Conditions | solvation free energy, 298 K [kcal/mol]
in CCCCCCCC(=O)OCC(COC(=O)CCCCCCC)OC(=O)CCCCCCC | -1.77
in CCCCCCCCO | -1.69
in CN1CCCC1=O | -2.26
in CN(C)C=O | -1.99
in O | 0.52

CCc1ccccc1O
Conditions | solvation free energy, 298 K [kcal/mol]
in CCCCCC | -6.6
in O | -5.85

COC(=O)CCl
Conditions | solvation free energy, 298 K [kcal/mol]
in O | -4

O=C(O)CCCCCC(=O)O
Conditions | solvation free energy, 298 K [kcal/mol]
in CCO | -14.2
in CCOCC | -12.8

COC(=O)c1ccc(O)cc1
Conditions | solvation free energy, 298 K [kcal/mol]
in C1CCOC1 | -12.5
in C1COCCO1 | -12.3
in CC(C)(C)O | -12.2
in CC(C)=O | -12.3
in CC(C)CO | -12
in CCC(C)O | -12.2
in CCCCCC | -7.42
in CCCCCCCCCCO | -11.4
in CCCCCCO | -11.9
in CCCCCO | -12
in CCCCO | -12.1
in CCCCOC(C)=O | -11.8
in CCCCOCCCC | -10.7
in CCCO | -12.2
in CCOC(C)=O | -11.9
in CCOCC | -11.7
in CNC=O | -12.7
in COC(C)(C)C | -11.8
in NC=O | -12.1
in O | -9.35

Cc1ccccc1C(=O)N(O)c1ccccc1C
Conditions | solvation free energy, 298 K [kcal/mol]
in O | -11.2

Clc1ccc(-c2ccc(Cl)c(Cl)c2)cc1Cl
Conditions | solvation free energy, 298 K [kcal/mol]
in O | -3.62

CC(C)CC(C)(C)C
Conditions | solvation free energy, 298 K [kcal/mol]
in C1CCOC1 | -4.65
in CC1CCS(=O)(=O)C1 | -2.59
in CC#N | -3.11
in CC(C)(C)O | -3.6
in CC(C)O | -3.68
in CC(C)OC(C)C | -4.57
in CCC(C)=O | -4.05
in CCCCCCCC | -4.53
in CCCCCCCCCCCCCCCC | -4.26
in CCCCCCCCCCO | -3.9
in CCCCCCO | -4.07
in CCCCCO | -3.89
in CCCCCl | -4.57
in CCCO | -3.67
in CCO | -3.84
in CN1CCCC1=O | -3.12
in CN(C)C=O | -3.18
in COC(C)(C)C | -4.65
in N#CCCOCCC#N | -1.86
in O | 2.92
in O=CN1CCOCC1 | -2.44
in OCCO | -1.05
in OCCOCCO | -1.78
in OCCOCCOCCO | -1.88
in OCCS | -2.36

CC(C)OC(C)C
Conditions | solvation free energy, 298 K [kcal/mol]
in Brc1cccc2ccccc12 | -3.49
in CC(=O)N(C)C | -3.41
in CC(=O)OCc1ccccc1 | -3.49
in CC(C)CC(C)(C)C | -3.78
in CCC(C)=O | -3.9
in CCC(C)Cl | -4.16
in CCC(C)O | -3.75
in CCCCCCCC | -3.84
in CCCCCCCCCCO | -3.43
in CCCCCCCCO | -3.63
in CCCCCl | -4.18
in CCCCN(C=O)CCCC | -3.48
in CCCCO | -3.75
in CCCO | -3.79
in CCN1CCCC1=O | -3.23
in CCN(CC)C(C)=O | -3.51
in CCNC(C)=O | -3.33
in CCNC=O | -3.23
in CN1CCCCC1=O | -3.27
in CN(C)C=O | -3.19
in CNC(C)=O | -3.25
in CNC=O | -3.04
in CO | -3.82
in ClC(Cl)(Cl)Cl | -4.23
in [2H]O[2H] | -1.56
in c1ccc2ncccc2c1 | -3.45

CCCCCCCCCCCCCCCCCCCCCCCCC
Conditions | solvation free energy, 298 K [kcal/mol]
in CC(=O)N(C)C | -17.1
in CC(C)(C)O | -15.3
in CN(C)C=O | -17.1
in COC(C)(C)C | -17.1
in O | 5.39

Clc1cc(-c2cc(Cl)c(Cl)c(Cl)c2Cl)c(Cl)c(Cl)c1Cl
Conditions | solvation free energy, 298 K [kcal/mol]
in CCCCCCCCO | -15.2
in O | -3.77

CCBr
Conditions | solvation free energy, 298 K [kcal/mol]
in Brc1cccc2ccccc12 | -3.23
in C=CCCCCCCCCCCCCCC | -2.91
in CC(=O)N(C)C | -3.44
in CC(=O)OCc1ccccc1 | -3.32
in CC(C)CC(C)(C)C | -2.95
in CCC(C)=O | -3.53
in CCCCCC | -3.14
in CCCCCCC | -3.04
in CCCCCCCC | -2.99
in CCCCCCCCO | -2.88
in CCCCCl | -3.51
in CCCCO | -3.03
in CCO | -3.03
in CCOC(C)=O | -3.53
in CN(C)C=O | -3.22
in Cc1ccc(C)cc1 | -3.41
in ClC(Cl)(Cl)Cl | -3.45
in ClC(Cl)Cl | -3.77
in ClCCCl | -3.6
in Clc1ccccc1 | -3.51
in N#Cc1ccccc1 | -3.41
in O | -0.74
in O=C1CCCCC1 | -3.55
in c1ccc2ncccc2c1 | -3.31

COS(C)(=O)=O
Conditions | solvation free energy, 298 K [kcal/mol]
in O | -4.87

CN
Conditions | solvation free energy, 298 K [kcal/mol]
in CCCCCC | -1.64
in CCCCO | -2.89
in CN(C)C=O | -2.66
in ClC(Cl)(Cl)Cl | -2.33
in ClC(Cl)Cl | -3.16
in O | -4.56

c1ccc2c(c1)Oc1ccccc1O2
Conditions | solvation free energy, 298 K [kcal/mol]
in O | -3.15

CCCC(=O)O
Conditions | solvation free energy, 298 K [kcal/mol]
in C=CCCCCCCC=C | -4.39
in C=CCCCCCCCCCCCCCC | -3.94
in O | -6.34

CCCCI
Conditions | solvation free energy, 298 K [kcal/mol]
in ClC(Cl)(Cl)Cl | -5.57
in O | -0.25

CCSc1nc(NC(C)C)nc(NC(C)C)n1
Conditions | solvation free energy, 298 K [kcal/mol]
in O | -9

CCOC
Conditions | solvation free energy, 298 K [kcal/mol]
in O | -2.1

Cc1ccc(C(=O)O)cc1
Conditions | solvation free energy, 298 K [kcal/mol]
in C=CCCCCCCCCCCCCCC | -6.96
in CCCCCCCCO | -10.2
in O | -7.35

Cc1c[nH]c2ccccc12
Conditions | solvation free energy, 298 K [kcal/mol]
in O | -5.88

C#CC
Conditions | solvation free energy, 298 K [kcal/mol]
in C1CCC2CCCCC2C1 | -1.49
in C1COCCO1 | -2.46
in CC1COC(=O)O1 | -2.04
in CC(C)=O | -2.48
in CC(C)CC(C)(C)C | -1.66
in CCCCCCCCCCCCCCCC | -1.4
in CN1CCCC1=O | -2.47
in CN(C)C=O | -2.49
in CN(C)P(=O)(N(C)C)N(C)C | -2.6
in COC(C)=O | -2.51
in COCCOCCOCCOC | -2.03
in CS(C)=O | -2.14
in Nc1ccccc1 | -2.01
in O | -0.48
in OCCCOCCCO | -1.53
in OCCO | -1.22
in OCc1ccccc1 | -1.77

CCCCCCN
Conditions | solvation free energy, 298 K [kcal/mol]
in CCCCCCC | -5.51
in O | -4

CC(C)CO
Conditions | solvation free energy, 298 K [kcal/mol]
in Brc1ccccc1 | -4.23
in C1CCCCC1 | -3.98
in CC(=O)N(C)C | -6.04
in CC(C)(C)O | -5.95
in CC(C)CC(C)(C)C | -3.55
in CC(C)CCCC(C)CCCC(C)CCCCC(C)CCCC(C)CCCC(C)C | -3.1
in CCC(C)=O | -5.43
in CCC(C)O | -5.95
in CCCCCC | -3.58
in CCCCCCC | -3.51
in CCCCCCCC | -3.33
in CCCCCCCCCCCCCCCC | -3.25
in CCCCCCCCCCO | -5.43
in CCCCCCCCO | -5.36
in CCCCCO | -5.73
in CCCCCl | -4.41
in CCCCN(C=O)CCCC | -5.76
in CCCCO | -5.74
in CCCCOC(C)=O | -4.84
in CCCOCCC | -4.78
in CCOC(=O)c1ccccc1C(=O)OCC | -4.88
in CCOP(=O)(OCC)OCC | -5.79
in CN1CCCC1=O | -6.03
in CN1CCN(C)C1=O | -5.9
in CNC(C)=O | -5.91
in CO | -6.18
in Cc1ccc(C)cc1 | -4.25
in Cc1cccc(C)c1 | -4.1
in Clc1ccccc1 | -4.26
in O | -4.52
in O=CN1CCOCC1 | -5.3
in OCCOCCO | -5.51
in [2H]O[2H] | -4.59

CCOC(C)O (stereo not given)
Conditions | solvation free energy, 298 K [kcal/mol]
in O | -6.7
